Test [1] deals with T1, PHL (Photorhabdus asymbiotica, UniProt C7BLE4). The test can be described thus: Hemagglutination inhibition assay with PHL (papain-treated human RBCs O). It is filed as cell-based. To be noted: for MIC (minimal inhibitory concentration, hemagglutination by PHL): RBC O, two independent measurements; for PotencyL-Fuc / β L-Fuc (affinity improvement factor) / β Azide1 (affinity improvement factor) / PotencyAzide1: hemagglutination; for PotencyL-Fuc: MIC L-fucose / MIC ligand; for β L-Fuc (affinity improvement factor): MICbasic unit/(valency × MICligand), basic unit L-Fuc; for β Azide1 (affinity improvement factor): basic unit azide 1; for PotencyAzide1: relative to azide 1. On the procedure: The set of potential ligands 1–10 with different levels of fucosylation was tested, and their inhibition potency on hemagglutination by PHL was assessed (Table 1, Fig. 2). […] To assess the contribution of valency to the affinity increase, an affinity improvement factor β was calculated as the relationship MICbasic unit/(valency × MICligand).
T1 sequence (C7BLE4 entry or part of it): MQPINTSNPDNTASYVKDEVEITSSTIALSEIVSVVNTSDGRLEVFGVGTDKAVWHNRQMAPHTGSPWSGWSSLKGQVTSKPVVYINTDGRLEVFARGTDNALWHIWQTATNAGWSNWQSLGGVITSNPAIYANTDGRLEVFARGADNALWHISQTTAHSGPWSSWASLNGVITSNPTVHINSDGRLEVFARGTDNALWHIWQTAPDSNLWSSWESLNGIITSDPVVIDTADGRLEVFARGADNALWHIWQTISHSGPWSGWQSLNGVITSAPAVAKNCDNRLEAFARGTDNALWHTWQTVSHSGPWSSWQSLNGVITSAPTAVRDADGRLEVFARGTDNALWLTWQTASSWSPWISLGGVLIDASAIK
Human red blood cells (RBCs) O were processed according to previously published work[16]. In brief, RBCs O treated with sodium citrate were washed four times by PBS buffer (137 mM NaCl, 2.7 mM KCl, 8 mM Na2HPO4, 1.47 mM KH2PO4, pH 7.4), diluted to 50% by PBS with 0.005% (w/w) sodium azide and treated by 0.1% papain for the duration of 30 minutes.
Hemagglutination inhibition assay was performed for specificity and semi-quantitative affinity of the PHL interaction with the compounds. All carbohydrate inhibitors in 50 mM starting concentration were serially diluted in the PBS buffer and used for a determination of the lowest inhibiting concentration. As a blank, the PBS buffer supplemented with the appropriate amount of DMSO was used in order to exclude potential interference with the interaction. The individual samples were mixed with the lectin in concentration 2 mg/ml in a 5 μl:5 μl ratio. Thereafter, 10 μl of 10% RBCs O in PBS buffer was added, thoroughly mixed and incubated for 10 minutes at room temperature. Following incubation, the mixture was again mixed and the reaction was observed on microscope slides using Levenhuk 2L NG microscope with Levenhuk D2L digital camera (Levenhuk, USA). Imagines were obtained via software ToupView for Windows (Levenhuk). The positive (PHL without inhibitor) and negative control (reaction without PHL) were prepared and processed in the same way using the appropriate volume of PBS buffer instead of the not included components. The lowest concentration of inhibitor able to inhibit agglutination was determined and compared with the standard (L-fucose). Minimal inhibitory concentrations (MIC) of synthesised inhibitors were determined from two independent measurements.

Test [2] relates to P. asymbiotica subsp. australis cells. Nature of the test: Cell aggregation (cross-linking) assay. The class given is cell-based, Photorhabdus asymbiotica subsp. australis. To be noted: three independent measurements. The source says: Because of the aggregation of PHL by calixarenes and dendrimers during SPR and ITC experiments, we decided to compare tetravalent compounds at a higher level. We performed a series of in vitro aggregation assays to reveal their aggregation properties towards P. asymbiotica subsp. australis (Table 4, Fig. 5). Prior to each assay, we confirmed the absence of aggregates in two negative controls – bacterial cells in PBS buffer and in the presence of azide 1 as a monomer. With all chosen compounds, we observed bacterial aggregates of a variable size that confirmed that they are capable of interacting with a cell surface. This effect may be caused by interaction of the multivalent inhibitors with PHL or other receptors. The concentration of the first appearance of aggregates varied according to the nature of the ligand used. […] An unexpected observation was that calixarene 7 had the lowest aggregation potential. In contrast to other techniques (hemagglutination, SPR and ITC), where calixarenes 6 and 7 provided similar results, during cross-linking experiments calixarene 7 was four times worse than calixarene 6. At the same time, both tetrameric calixarenes 6 and 7 are in a 1,3-alternate conformation with the two-faced presentation of the fucopyranosyl epitopes on opposite regions probably occupying a similar spatial orientation. The only difference is the tert-Bu group on the upper rim in calixarene 6, which might contribute to nonpolar interactions with whole P. asymbiotica cells.
P. asymbiotica subsp. australis was inoculated from stock cells stored at −80 °C into a standard LB media and were grown in 30 °C under an orbital shaking overnight. Bacterial growth was tracked by measuring the optical density of the broth at 600 nm (OD600) using a spectrophotometer (Biochrom Ltd., BioPhotometer WGA CO 8000 Biowave). Cells were harvested when reaching an OD600 = 0.5. The culture was centrifuged at 4,300 g and room temperature for 2 minutes (Minispin, Eppendorf, Germany) and cells were then washed three times with PBS buffer. Cells were diluted in PBS to OD600 of 2.0 and kept in a fridge until performing the aggregation assay.
P. asymbiotica subsp. australis cells and fucosylated compounds in a concentration ranging from 50 mM to 3.125 mM were gently mixed in a 9:1 (v/v) ratio. The reaction mixtures were left at room temperature for 10 minutes. 5 µl of reaction mixture was then transferred onto a microscope slide and observed under a fluorescence microscope (OLYMPUS IX81 Microscope IX81F-3 with IX2-UCB-2 Controller and X-Cite 120PC Q; Olympus and Excelitas Technologies, Japan, resp. USA). As a negative control, bacterial cells with/without azide 1 as a monomer were used. Three independent measurements were performed.

Test [3] addresses T1, PHL. Nature of the test: SPR competitive inhibition of PHL binding to α-L-fucoside sensor chip. To be noted: for IC50: 25 °C, three independent measurements; for β L-Fuc (affinity improvement factor): IC50,basic unit/(valency × IC50,ligand), basic unit L-Fuc; for PotencyL-Fuc: IC50 L-fucose / IC50 ligand; for PotencyAzide1: relative to azide 1. On the procedure: To analyse the competitive inhibition of PHL binding to a multivalent surface, the surface plasmon resonance (SPR) technique was employed. A sensor chip presenting α-L-fucopyranoside residues was treated with a constant concentration of PHL, while an increasing concentration of the ligands was used to determine IC50 (Table 2, Fig. 3). […] To assess the contribution of valency to the affinity increase, an affinity improvement factor β was calculated as the relationship IC50,basic unit/(valency × IC50,ligand)[30].
Surface plasmon resonance (SPR) experiments were performed on a BIAcore T200 instrument (GE Healthcare, UK) at 25 °C, using buffer A supplemented with 0.05% Tween 20 as a running buffer. α-L-fucoside was immobilized onto CM5 sensor chip (GE Healthcare, UK) covered with a carboxymethylated dextran matrix. The sensor chip surface was activated with N-ethyl-N-(3-dimethylaminopropyl)carbodiimide/N-hydroxysuccinimide solution and then coated with streptavidin using the manufacturer’s standard protocol using HBS buffer (10 mM HEPES, 150 mM NaCl, 0.05% Tween 20, pH 7. 5). Unreacted groups were blocked with 1 M ethanolamine-HCl, pH 8.5. Biotinylated carbohydrate (biotinilated monomeric probes, Lectinity, Russia) was injected onto particular measuring channel and pure biotin on blank channel at a flow rate of 5 μl/min.
SPR inhibition measurements were carried out on measuring channel with L-fucoside at a flow rate of 5 µl/min. PHL was diluted to a concentration of 20 μg/ml by the buffer A supplemented with 0.05% Tween 20, mixed 1:1 (v/v) with various concentrations of inhibitors (500–5 μM) in the same buffer and injected onto the sensor chip. The response of lectin bound to the sugar surface at equilibrium was plotted against the concentration of inhibitor in order to determine IC50 (concentration of inhibitor resulting in 50% inhibition of binding). As IC50 is not a constant and depends on the experimental set-up, a parameter called potency was used for characterization. The potency of a tested inhibitor is the ratio of IC50 of a chosen standard inhibitor (in this case L-fucose) and the inhibitor in question. Pure PHL lectin was used as a control (0% inhibition) and channel with pure biotin served as a blank. IC50 was determined from triplicates.

Test [4] addresses T1, PHL. The test can be described thus: Isothermal titration calorimetry of PHL with ligands. It is filed as binding. The source says: The binding of PHL to different α-L-fucoside compounds was further characterized by isothermal titration calorimetry (ITC), enabling determination of the complete thermodynamic profile of the molecular interactions (Table 3, Fig. 4). […] Because of this, it was not possible to evaluate the data, despite the obvious interaction. The dendrimers also cross-linked/aggregated the protein as with calixarenes, however the curves provided clear outcomes with an affinity in the low micromolar range. The dissociation constants (KD) of all dendrimers correlate with their valency – the higher number of fucose, the more decreased KD. […] The stoichiometry value n corresponds to the number of terminal fucoses per ligand molecule. The n value decreases from 4 to 1 as the number of fucose units increases from 1 to 12 (Table 3).
PHL protein in buffer A was equilibrated at room temperature at least for 30 min before ITC measurement. All ITC experiments were performed using ITC200 calorimeter (Malvern Panalytical, UK) at 25 °C. Carbohydrate ligands dissolved in buffer A were used at different concentrations. Protein in the calorimeter cell (50 μM) was titrated by consecutive additions (2 μl) of the ligand (1.5–5 mM) in the syringe while stirring at 1000 rpm. Integrated heat effects were analysed by nonlinear regression using a single-site binding model and global fitting in Origin 7 software (Microcal Instruments)[37]. The thermodynamic parameters of synthesised inhibitors were determined from two independent measurements.

Test [5] deals with T1, PHL. More on the design: method as in PMID 28806750. To be noted: SPR competition assay, earlier work; cited from earlier work.

We go through 3 molecules from paper PMC6797808, “Fucosylated inhibitors of recently identified bangle lectin from Photorhabdus asymbiotica” (Scientific Reports, 2019).

≈ marks a conversion by molar mass, not a printed value. Where two headings read alike, the source gives them in different places.

A word on the IC50: it is the point on the concentration scale where inhibition reaches its midpoint. As usually defined, the Kd is the constant that tells how readily two partners part at equilibrium. Read a low Kd as tighter binding.

On to `C[C@@H]1O[C@@H](CCn2cc(COc3c4cc(C(C)(C)C)cc3Cc3cc(C(C)(C)C)cc(c3OCc3cn(CC[C@@H]5O[C@@H](C)[C@@H](O)[C@@H](O)[C@@H]5O)nn3)Cc3cc(C(C)(C)C)cc(c3OCc3cn(CC[C@@H]5O[C@@H](C)[C@@H](O)[C@@H](O)[C@@H]5O)nn3)Cc3cc(C(C)(C)C)cc(c3OCc3cn(CC[C@@H]5O[C@@H](C)[C@@H](O)[C@@H](O)[C@@H]5O)nn3)C4)nn2)[C@@H](O)[C@H](O)[C@@H]1O` [Calixarene 6], for which, at PHL [1], the “MIC (minimal inhibitory concentration, hemagglutination by PHL)” value came to 100 µM (≈ 167 µg/mL); the PotencyL-Fuc stood at 31.3; the “β L-Fuc (affinity improvement factor)” value amounted to 7.8; the “β Azide1 (affinity improvement factor)” value stood at 0.5. For the same molecule, at PHL [1], the PotencyAzide1 was 2. In addition, in test [2], the “The lowest concentration able to aggregate P. asymbiotica cells” value came out at 1.25 mM. Further, at PHL [3], the IC50 stood at 0.195 ± 0.023 µM, the “β L-Fuc (affinity improvement factor)” value came out at 464, the PotencyL-Fuc is reported as 1,853 and the PotencyAzide1 stood at 59. For the same molecule, the “β Azide1 (affinity improvement factor)” value on PHL [3] (basic unit azide 1) came to 15. Also, on PHL [3] (basic unit azide 1, listed as calixarene 6), the “β Azide1 (affinity improvement factor)” value is listed as “approximately 15”.

Turning to `C[C@@H]1O[C@@H](CCn2cc(COc3c4cccc3Cc3cccc(c3OCc3cn(CC[C@@H]5O[C@@H](C)[C@@H](O)[C@@H](O)[C@@H]5O)nn3)Cc3cccc(c3OCc3cn(CC[C@@H]5O[C@@H](C)[C@@H](O)[C@@H](O)[C@@H]5O)nn3)Cc3cccc(c3OCc3cn(CC[C@@H]5O[C@@H](C)[C@@H](O)[C@@H](O)[C@@H]5O)nn3)C4)nn2)[C@@H](O)[C@H](O)[C@@H]1O` [Calixarene 7], at PHL [1], the “MIC (minimal inhibitory concentration, hemagglutination by PHL)” value worked out at 100 µM (≈ 145 µg/mL); the PotencyL-Fuc came to 31.3; the “β L-Fuc (affinity improvement factor)” value is 7.8; the “β Azide1 (affinity improvement factor)” value amounted to 0.5. In addition, the PotencyAzide1 at PHL [1] is recorded as 2. Moreover, in test [2], the “The lowest concentration able to aggregate P. asymbiotica cells” value was 5 mM. For the same molecule, on PHL [3], the IC50 worked out at 0.178 ± 0.02 µM, the “β L-Fuc (affinity improvement factor)” value was 508, the PotencyL-Fuc is reported as 2,029 and the PotencyAzide1 is given as 61. Also, the “β Azide1 (affinity improvement factor)” value at PHL [3] (basic unit azide 1) was “approximately 15”.

For `CO[C@@H]1O[C@@H](C)[C@@H](O)[C@@H](O)[C@@H]1O` [α-Me-Fuc, methyl α-L-fucopyranoside, reference compound], on PHL [4] (ITC at 25 °C), the dissociation constant (Kd) was 267 ± 11 µM, the “−TΔS” value stood at 9.23 ± 1.03 kcal/mol, the “−ΔG” value was 4.88 ± 0.22 kcal/mol and the “−ΔH” value was 14.1 ± 1 kcal/mol. Besides, the “n (stoichiometry)” value at PHL [4] (ITC at 25 °C, two independent measurements) worked out at 2.9 ± 0.2. Also, the “Potency L-Fuc” value on PHL [4] (ITC, KD L-fucose / KD ligand) is given as 5. Moreover, the “β L-Fuc (affinity improvement factor)” value on PHL [4] (ITC, KD,basic unit/(valency × KD,ligand), basic unit L-Fuc) stood at 5. Besides, at PHL [5], the IC50 is 40 µM and the “fold stronger ligand than free L-fucose” value was approximately 10 fold. In addition, at PHL [1], the “MIC (minimal inhibitory concentration, hemagglutination by PHL)” value was found to be 400 µM (≈ 71.3 µg/mL); the PotencyL-Fuc is recorded as 7.8; the “β L-Fuc (affinity improvement factor)” value turned out to be 7.8. At PHL [3], the IC50 came to 38.5 ± 1.2 µM, the “β L-Fuc (affinity improvement factor)” value is 9 and the PotencyL-Fuc worked out at 9.
